Here are results for 22 molecules from patent publication US9624170B2, “4-(piperrazin-1-yl)-pyrrolidin-2-one compounds as monoacylglycerol lipase (MAGL) inhibitors” (TAKEDA PHARMACEUTICAL COMPANY LIMITED, priority 2013, dated 2017).

One may read the inhibition as the relative decrease from the control value, in per cent.

The target of the assay is T1, human MAGL (His-hMAGL) (Homo sapiens, UniProt Q99685).
T1 construct: made in house; host or cells: Escherichia coli BL21(DE3)
T1 sequence (Q99685 1-303): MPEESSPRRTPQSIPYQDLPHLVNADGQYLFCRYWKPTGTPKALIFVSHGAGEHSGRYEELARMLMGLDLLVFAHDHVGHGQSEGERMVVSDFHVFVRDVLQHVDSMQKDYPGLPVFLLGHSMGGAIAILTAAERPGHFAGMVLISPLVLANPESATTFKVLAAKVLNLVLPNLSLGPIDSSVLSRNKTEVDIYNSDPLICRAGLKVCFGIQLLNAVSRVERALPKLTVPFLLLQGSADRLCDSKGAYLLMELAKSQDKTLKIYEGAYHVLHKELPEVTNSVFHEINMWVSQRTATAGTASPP
Description: Measurement of MAGL inhibitory activity by mass spectrometry. The format is biochemical. The note with it: MAGL inhibitory rate, test compound 10 μM, His-hMAGL, substrate 2-arachidonylglycerol, RapidFire-mass spectrometry. The gist of the method:
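His-tagged human MAGL was reacted with 150 μM 2-arachidonylglycerol substrate (stock, added by 5 μL) for 10 min at room temperature, then stopped with formic acid. Arachidonic acid product was quantified by RapidFire–triple-quadrupole MS in negative SRM mode, corrected by arachidonic acid-d8, and converted to percent inhibition.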
Regarding `O=C(c1nccs1)N1CCN(C2CC(=O)N(c3ccc4c(c3)CCN4c3ccnc(C(F)(F)F)c3)C2)CC1` (stereo not shown) [Example 365, 4-(4-(1,3-thiazol-2-ylcarbonyl)piperazin-1-yl)-1-(1-(2-(trifluoromethyl)pyridin-4-yl)-2,3-dihydro-1H-indol-5-yl)pyrrolidin-2-one], the inhibition at 10 µM was found to be 98%.

As for `O=C(c1nccs1)N1CCN(C2CC(=O)N(c3sc4cc(F)ccc4c3Cl)C2)CC1` (stereo not shown) [Example 366, 1-(3-Chloro-6-fluoro-1-benzothiophen-2-yl)-4-(4-(1,3-thiazol-2-ylcarbonyl)piperazin-1-yl)pyrrolidin-2-one], the inhibition at 10 µM worked out at 100%.

Take `Cc1ccc(-c2cccc(N3CC(N4CCN(C(=O)c5nccs5)CC4)CC3=O)c2)c(C)n1` (stereo not shown) [Example 368, 1-(3-(2,6-dimethylpyridin-3-yl)phenyl)-4-(4-(1,3-thiazol-2-ylcarbonyl)piperazin-1-yl)pyrrolidin-2-one]: the inhibition at 10 µM was determined as 97%. The same measure for `O=C(c1nccs1)N1CCN(C2CC(=O)N(c3cccc(-c4cnccc4Cl)c3)C2)CC1` (stereo not shown) [Example 370, 1-(3-(4-chloropyridin-3-yl)phenyl)-4-(4-(1,3-thiazol-2-ylcarbonyl)piperazin-1-yl)pyrrolidin-2-one]: 101%. Take `O=C(c1nccs1)N1CCN(C2CC(=O)N(c3cccc(-c4cnccc4C(F)(F)F)c3)C2)CC1` (stereo not shown) [Example 371, 4-(4-(1,3-thiazol-2-ylcarbonyl)piperazin-1-yl)-1-(3-(4-(trifluoromethyl)pyridin-3-yl)phenyl)pyrrolidin-2-one]: the inhibition at 10 µM was 104%. For `CC(C)(C)OC(=O)N1CCc2cc(N3CC(N4CCN(C(=O)c5nccs5)CC4)CC3=O)ccc21` (stereo not shown) [Example 372, tert-Butyl 5-(2-oxo-4-(4-(1,3-thiazol-2-ylcarbonyl)piperazin-1-yl)pyrrolidin-1-yl)indoline-1-carboxylate], the inhibition at 10 µM worked out at 101%.

As for `O=C(c1nccs1)N1CCN(C2CC(=O)N(c3ccc4c(c3)CCN4C(=O)C(F)(F)F)C2)CC1` (stereo not shown) [Example 373, 4-(4-(1,3-Thiazol-2-ylcarbonyl)piperazin-1-yl)-1-(1-(trifluoroacetyl)-2,3-dihydro-1H-indol-5-yl)pyrrolidin-2-one], the inhibition at 10 µM came out at 96%. With `O=C(c1nccs1)N1CCN(C2CC(=O)N(c3ccc4c(c3)CCN4)C2)CC1` (stereo not shown) [Example 374, 1-(2,3-Dihydro-1H-indol-5-yl)-4-(4-(1,3-thiazol-2-ylcarbonyl)piperazin-1-yl)pyrrolidin-2-one], the inhibition at 10 µM stood at 81%. For `O=C(c1nccs1)N1CCN(C2CC(=O)N(c3ccc4c(c3)CCN4C3CC3)C2)CC1` (stereo not shown) [Example 375, 1-(1-Cyclopropyl-2,3-dihydro-1H-indol-5-yl)-4-(4-(1,3-thiazol-2-ylcarbonyl)piperazin-1-yl)pyrrolidin-2-one], the inhibition at 10 µM worked out at 95%. The same measure for `O=C1CC(N2CCN(c3ncccn3)CC2)CN1c1ccc2c(c1)CCN2c1ccnc(C(F)(F)F)c1` (stereo not shown) [Example 377, 4-(4-(pyrimidin-2-yl)piperazin-1-yl)-1-(1-(2-(trifluoromethyl)pyridin-4-yl)-2,3-dihydro-1H-indol-5-yl)pyrrolidin-2-one]: 97%. On to `O=C1CC(N2CCN(c3ncccn3)CC2)CN1c1ccc2c(c1)CCN2c1ncc(C(F)(F)F)cn1` (stereo not shown) [Example 378, 4-(4-(Pyrimidin-2-yl)piperazin-1-yl)-1-(1-(5-(trifluoromethyl)pyrimidin-2-yl)-2,3-dihydro-1H-indol-5-yl)pyrrolidin-2-one], for which the inhibition at 10 µM came out at 95%.

Regarding `CC(C)(C)CC(=O)N1CCc2cc(N3CC(N4CCN(C(=O)c5nccs5)CC4)CC3=O)ccc21` (stereo not shown) [Example 382, 1-(1-(3,3-Dimethylbutanoyl)-2,3-dihydro-1H-indol-5-yl)-4-(4-(1,3-thiazol-2-ylcarbonyl)piperazin-1-yl)pyrrolidin-2-one], the inhibition at 10 µM came to 99%.

With `O=C(c1nccs1)N1CCN(C2CC(=O)N(c3ccc4c(c3)CCN4c3ccc(C(F)(F)F)cn3)C2)CC1` (stereo not shown) [Example 383, 4-(4-(1,3-thiazol-2-ylcarbonyl)piperazin-1-yl)-1-(1-(5-(trifluoromethyl)pyridin-2-yl)-2,3-dihydro-1H-indol-5-yl)pyrrolidin-2-one], the inhibition at 10 µM was 98%. The same measure for `O=C(c1cscn1)N1CCN([C@@H]2CC(=O)N(c3ccc4c(c3)CCN4c3ncc(C(F)(F)F)cn3)C2)CC1` [Example 384, (4R)-4-(4-(1,3-thiazol-4-ylcarbonyl)piperazin-1-yl)-1-(1-(5-(trifluoromethyl)pyrimidin-2-yl)-2,3-dihydro-1H-indol-5-yl)pyrrolidin-2-one]: 99%; for `O=C(c1nccs1)N1CCN([C@@H]2CC(=O)N(c3ccc4c(c3)CCN4c3cc(C(F)(F)F)ncn3)C2)CC1` [Example 385, (4R)-4-(4-(1,3-thiazol-2-ylcarbonyl)piperazin-1-yl)-1-(1-(6-(trifluoromethyl)pyrimidin-4-yl)-2,3-dihydro-1H-indol-5-yl)pyrrolidin-2-one]: 100%. The same measure for `O=C(c1nccs1)N1CCN(C2CC(=O)N(c3ccc4oc(-c5ccc(F)cc5)nc4c3)C2)CC1` (stereo not shown) [Example 386, 1-(2-(4-fluorophenyl)-1,3-benzoxazol-5-yl)-4-(4-(1,3-thiazol-2-ylcarbonyl)piperazin-1-yl)pyrrolidin-2-one]: 99%; for `O=C(c1nccs1)N1CCN(C2CC(=O)N(c3ccc4nc(-c5ccccc5)oc4c3)C2)CC1` (stereo not shown) [Example 387, 1-(2-phenyl-1,3-benzoxazol-6-yl)-4-(4-(1,3-thiazol-2-ylcarbonyl)piperazin-1-yl)pyrrolidin-2-one]: 97%. In the case of `O=C(c1nccs1)N1CCN([C@@H]2CC(=O)N(c3ccc4c(c3)CCN4c3ccnc(C(F)(F)F)n3)C2)CC1` [Example 388, (4R)-4-(4-(1,3-thiazol-2-ylcarbonyl)piperazin-1-yl)-1-(1-(2-(trifluoromethyl)pyrimidin-4-yl)-2,3-dihydro-1H-indol-5-yl)pyrrolidin-2-one], the inhibition at 10 µM was found to be 99%. The same measure for `CC(C)(C)OC(=O)N1CCc2cc(N3CC(N4CCN(c5ncccn5)CC4)CC3=O)ccc21` (stereo not shown) [Example 389, tert-butyl 5-(2-oxo-4-(4-(pyrimidin-2-yl)piperazin-1-yl)pyrrolidin-1-yl)indoline-1-carboxylate]: 98%; for `O=C(c1nccs1)N1CCN([C@@H]2CC(=O)N(c3ccc4c(c3)CCN4c3cnc(C(F)(F)F)cn3)C2)CC1` [Example 390, (4R)-4-(4-(1,3-thiazol-2-ylcarbonyl)piperazin-1-yl)-1-(1-(5-(trifluoromethyl)pyrazin-2-yl)-2,3-dihydro-1H-indol-5-yl)pyrrolidin-2-one]: 96%; for `O=C(c1nccs1)N1CCN([C@@H]2CC(=O)N(c3ccc4c(c3)CCN4c3cnc(C(F)(F)F)nc3)C2)CC1` [Example 391, (4R)-4-(4-(1,3-thiazol-2-ylcarbonyl)piperazin-1-yl)-1-(1-(2-(trifluoromethyl)pyrimidin-5-yl)-2,3-dihydro-1H-indol-5-yl)pyrrolidin-2-one]: 90%. Take `O=C(c1nccs1)N1CCN(C2CC(=O)N(c3ccc4c(c3)CCN4C(=O)Cc3ccccc3)C2)CC1` (stereo not shown) [Example 392, 1-(1-(phenylacetyl)-2,3-dihydro-1H-indol-5-yl)-4-(4-(1,3-thiazol-2-ylcarbonyl)piperazin-1-yl)pyrrolidin-2-one]: the inhibition at 10 µM was determined as 99%.
